Experiments:
Assay in all cases: cells
Conditions in all cases: Homo sapiens
SF-539 = format: functional, cell-based;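 note: Read-out is a cell viability assay, with IC50 reflecting inhibition of cell growth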
Description: SANGER: Inhibition of human SF539 cell growth in a cell viability assay.

ES3 = format: functional, cell-based;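 note: growth inhibition of ES3 cells, read out with a cell viability assay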
Description: SANGER: Inhibition of human ES3 cell growth in a cell viability assay.

NTERA-2-cl-D1 = format: functional, cell-based;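 note: inhibition of cell growth, measured with a cell viability assay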
Description: SANGER: Inhibition of human NTERA-S-cl-D1 cell growth in a cell viability assay.

EW-24 = format: functional, cell-based;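 note: human EW-24 cancer cell line, growth inhibition read out via a cell viability assay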
Description: SANGER: Inhibition of human EW-24 cell growth in a cell viability assay.

SK-N-DZ = format: functional, cell-based;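 note: growth inhibition of the cancer cell line, read out through a viability assay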
Description: SANGER: Inhibition of human SK-N-DZ cell growth in a cell viability assay.

RPMI-8866 = format: functional, cell-based
Description: SANGER: Inhibition of human RPMI-8866 cell growth in a cell viability assay.

SW 962 = format: functional, cell-based;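 note: growth inhibition of human SW962 cells, read out by a cell viability assay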
Description: SANGER: Inhibition of human SW962 cell growth in a cell viability assay.

ML-2 = format: functional, cell-based;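 note: growth inhibition of ML-2 cells, measured with a cell viability readout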
Description: SANGER: Inhibition of human ML-2 cell growth in a cell viability assay.

SK-NEP-1 = format: functional, cell-based;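 note: growth inhibition of human SK-NEP-1 cells, read out by a cell viability assay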
Description: SANGER: Inhibition of human SK-NEP-1 cell growth in a cell viability assay.

KURAMOCHI = format: functional, cell-based;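 note: growth inhibition of KURAMOCHI cells, read out with a cell viability assay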
Description: SANGER: Inhibition of human KURAMOCHI cell growth in a cell viability assay.

HOP-62 = format: functional, cell-based;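 note: cell growth inhibition determined with a viability assay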
Description: SANGER: Inhibition of human HOP-62 cell growth in a cell viability assay.

KLE = format: functional, cell-based;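 note: growth inhibition of human KLE cells, read out with a cell viability assay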
Description: SANGER: Inhibition of human KLE cell growth in a cell viability assay.

A3-KAW = format: functional, cell-based;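 note: growth inhibition of human A3-KAW cells, read out with a cell viability assay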
Description: SANGER: Inhibition of human A3-KAW cell growth in a cell viability assay.

OMC-1 = format: functional, cell-based;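 note: growth inhibition of the OMC-1 cell line, measured by a cell viability assay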
Description: SANGER: Inhibition of human OMC-1 cell growth in a cell viability assay.

ONS-76 = format: functional, cell-based;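 note: growth inhibition of human ONS-76 cells, read out with a cell viability assay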
Description: SANGER: Inhibition of human ONS-76 cell growth in a cell viability assay.

HCE-4 = format: functional, cell-based;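 note: cell viability assay measuring inhibition of growth in the human HCE-4 cell line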
Description: SANGER: Inhibition of human HCE-4 cell growth in a cell viability assay.

JVM-2 = format: functional, cell-based;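 note: growth inhibition of JVM-2 cells determined by a cell viability assay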
Description: SANGER: Inhibition of human JVM-2 cell growth in a cell viability assay.

KS-1 = format: functional, cell-based;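 note: growth inhibition of KS-1 cells, read out with a cell viability assay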
Description: SANGER: Inhibition of human KS-1 cell growth in a cell viability assay.

KP-N-YS = format: functional, cell-based;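 note: cell viability assay measuring inhibition of cell line growth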
Description: SANGER: Inhibition of human KP-N-YS cell growth in a cell viability assay.

JVM-3 = format: functional, cell-based;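 note: growth inhibition of human JVM-3 cells, read out with a cell viability assay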
Description: SANGER: Inhibition of human JVM-3 cell growth in a cell viability assay.

CTB-1 = format: functional, cell-based
Description: SANGER: Inhibition of human CTB-1 cell growth in a cell viability assay.

LB1047-RCC = format: functional, cell-based;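 note: inhibition of cell growth, determined with a cell viability assay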
Description: SANGER: Inhibition of human LB1047-RCC cell growth in a cell viability assay.

SCC-15 = format: functional, cell-based;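 note: growth inhibition of SCC-15 cells, read out with a cell viability assay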
Description: SANGER: Inhibition of human SCC-15 cell growth in a cell viability assay.

KNS-42 = format: functional, cell-based;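 note: growth inhibition of KNS-42 cells, read out with a cell viability assay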
Description: SANGER: Inhibition of human KNS-42 cell growth in a cell viability assay.

CAS-1 = format: functional, cell-based;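 note: growth inhibition of CAS-1 cells, measured with a cell viability assay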
Description: SANGER: Inhibition of human CAS-1 cell growth in a cell viability assay.

HCE-T = format: functional, cell-based;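 note: cell viability assay read-out, reporting inhibition of HCE-T cell growth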
Description: SANGER: Inhibition of human HCE-T cell growth in a cell viability assay.

DMS-114 = format: functional, cell-based
KGN = format: functional, cell-based;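 note: growth inhibition of KGN cells, read out with a cell viability assay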
Description: SANGER: Inhibition of human KGN cell growth in a cell viability assay.

SK-N-FI = format: functional, cell-based;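 note: cell viability assay measuring growth inhibition of human SK-N-FI cells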
Description: SANGER: Inhibition of human SK-N-FI cell growth in a cell viability assay.

TK-10 = format: functional, cell-based;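 note: growth inhibition of TK-10 cells, read out in a cell viability assay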
Description: SANGER: Inhibition of human TK10 cell growth in a cell viability assay.

NCI-H209 = format: functional, cell-based;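 note: growth inhibition of human NCI-H209 cells, measured by a cell viability assay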
Description: SANGER: Inhibition of human NCI-H209 cell growth in a cell viability assay.

D-502MG = format: functional, cell-based
Description: SANGER: Inhibition of human D-502MG cell growth in a cell viability assay.

EC-GI-10 = format: functional, cell-based
Description: SANGER: Inhibition of human EC-GI-10 cell growth in a cell viability assay.

KG-1 = format: functional, cell-based;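 note: growth inhibition of KG-1 cells, read out by a cell viability assay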
Description: SANGER: Inhibition of human KG-1 cell growth in a cell viability assay.

SJSA-1 = format: functional, cell-based;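 note: growth inhibition of human SJSA-1 cells, read out through a cell viability measurement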
Description: SANGER: Inhibition of human SJSA-1 cell growth in a cell viability assay.

TE-11 = format: functional, cell-based;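 note: growth inhibition of human TE-11 cells, read out by a cell viability assay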
Description: SANGER: Inhibition of human TE-11 cell growth in a cell viability assay.

MS-1 = format: functional, cell-based
Description: SANGER: Inhibition of human MS-1 cell growth in a cell viability assay.

GCIY = format: functional, cell-based;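 note: growth inhibition of the human GCIY cell line, read out by a cell viability assay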
Description: SANGER: Inhibition of human GCIY cell growth in a cell viability assay.

HCC1187 = format: functional, cell-based;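 note: growth inhibition of HCC1187 cells, read out with a cell viability assay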
Description: SANGER: Inhibition of human HCC1187 cell growth in a cell viability assay.

CTV-1 = format: functional, cell-based;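 note: growth inhibition of the cell line, read out with a cell viability assay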
Description: SANGER: Inhibition of human CTV-1 cell growth in a cell viability assay.

SNB-75 = format: functional, cell-based;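 note: cell viability assay measuring growth inhibition of human SNB-75 cells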
Description: SANGER: Inhibition of human SNB75 cell growth in a cell viability assay.

D283 Med = format: functional, cell-based
Description: SANGER: Inhibition of human D-283MED cell growth in a cell viability assay.

NOMO-1 = format: functional, cell-based;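 note: growth inhibition of human NOMO-1 cells measured by a cell viability assay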
Description: SANGER: Inhibition of human NOMO-1 cell growth in a cell viability assay.

NCI-H1355 = format: functional, cell-based;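 note: growth inhibition of human NCI-H1355 cells, read out by a cell viability assay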
Description: SANGER: Inhibition of human NCI-H1355 cell growth in a cell viability assay.

C8166 = format: functional, cell-based;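 note: growth inhibition of human C8166 cells measured by a cell viability assay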
Description: SANGER: Inhibition of human C8166 cell growth in a cell viability assay.

EOL1 = format: functional, cell-based;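 note: growth inhibition of EoL-1 cells, read out by a cell viability assay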
Description: SANGER: Inhibition of human EoL-1-cell cell growth in a cell viability assay.

L-428 = format: functional, cell-based
Description: SANGER: Inhibition of human L-428 cell growth in a cell viability assay.

MHH-PREB-1 = format: functional, cell-based;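 note: cell viability assay measuring inhibition of proliferation of human MHH-PREB-1 cells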
Description: SANGER: Inhibition of human MHH-PREB-1 cell growth in a cell viability assay.

HuTu80 = format: functional, cell-based, HUTU-80;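 note: growth inhibition of HuTu80 human cells, determined with a cell viability readout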
Description: SANGER: Inhibition of human HUTU-80 cell growth in a cell viability assay.

A388 = format: functional, cell-based;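 note: growth inhibition of human A388 cells, read out with a cell viability assay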
Description: SANGER: Inhibition of human A388 cell growth in a cell viability assay.

KALS-1 = format: functional, cell-based;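 note: growth inhibition of KALS-1 cells, determined with a cell viability assay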
Description: SANGER: Inhibition of human KALS-1 cell growth in a cell viability assay.

NCI-H1155 = format: functional, cell-based;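 note: cell growth inhibition measured by a viability assay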
Description: SANGER: Inhibition of human NCI-H1155 cell growth in a cell viability assay.

ES5 = format: functional, cell-based;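 note: growth inhibition of human ES5 cells, read out by a cell viability assay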
Description: SANGER: Inhibition of human ES5 cell growth in a cell viability assay.

OS-RC-2 = format: functional, cell-based;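 note: growth inhibition of human OS-RC-2 cells, measured by a cell viability assay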
Description: SANGER: Inhibition of human OS-RC-2 cell growth in a cell viability assay.

SK-MEL-1 = format: functional, cell-based;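 note: growth inhibition of human SK-MEL-1 cells, read out by a cell viability assay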
Description: SANGER: Inhibition of human SK-MEL-1 cell growth in a cell viability assay.

NCI-H1648 = format: functional, cell-based;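 note: cell viability assay measuring inhibition of NCI-H1648 cell growth, from the Sanger screening data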
Description: SANGER: Inhibition of human NCI-H1648 cell growth in a cell viability assay.

KARPAS-45 = format: functional, cell-based;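 note: inhibition of cell line growth, read out through a viability assay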
Description: SANGER: Inhibition of human KARPAS-45 cell growth in a cell viability assay.

Calu-6 = format: functional, cell-based;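 note: growth of human Calu-6 cells, read out by a cell viability assay, IC50 marking inhibition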
Description: SANGER: Inhibition of human Calu-6 cell growth in a cell viability assay.

LS-1034 = format: functional, cell-based
Description: SANGER: Inhibition of human LS-1034 cell growth in a cell viability assay.

KINGS-1 = format: functional, cell-based
Description: SANGER: Inhibition of human KINGS-1 cell growth in a cell viability assay.

MN-60 = format: functional, cell-based
Description: SANGER: Inhibition of human MN-60 cell growth in a cell viability assay.

NCI-H510A = format: functional, cell-based
Description: SANGER: Inhibition of human NCI-H510A cell growth in a cell viability assay.

DMS-79 = format: functional, cell-based
Description: SANGER: Inhibition of human DMS-79 cell growth in a cell viability assay.

GOTO = format: functional, cell-based
Description: SANGER: Inhibition of human GOTO cell growth in a cell viability assay.

MSTO-211H = format: functional, cell-based
Description: SANGER: Inhibition of human MSTO-211H cell growth in a cell viability assay.

DU-4475 = format: functional, cell-based
Description: SANGER: Inhibition of human DU-4475 cell growth in a cell viability assay.

N#C/C(=C1/Nc2ccccc2S1)c1ccnc(NCCc2cccnc2)n1
IC50 (SF-539): > 8 µM | IC50 (ES3): > 8 µM | IC50 (NTERA-2-cl-D1): > 8 µM | IC50 (EW-24): > 8 µM | IC50 (SK-N-DZ): > 8 µM | IC50 (RPMI-8866): > 8 µM | IC50 (SW 962): > 8 µM | IC50 (ML-2): > 8 µM | IC50 (SK-NEP-1): > 8 µM | IC50 (KURAMOCHI): 3.51 µM | IC50 (HOP-62): > 8 µM | IC50 (KLE): > 8 µM | IC50 (A3-KAW): > 8 µM | IC50 (OMC-1): > 8 µM | IC50 (ONS-76): > 8 µM | IC50 (HCE-4): > 8 µM | IC50 (JVM-2): > 8 µM | IC50 (KS-1): 6.03 µM | IC50 (KP-N-YS): > 8 µM | IC50 (JVM-3): > 8 µM | IC50 (CTB-1): > 8 µM | IC50 (LB1047-RCC): 1.68 µM | IC50 (SCC-15): > 8 µM | IC50 (KNS-42): > 8 µM | IC50 (CAS-1): > 8 µM | IC50 (HCE-T): 7.35 µM | IC50 (DMS-114): > 8 µM | IC50 (KGN): 5.85 µM | IC50 (SK-N-FI): > 8 µM | IC50 (TK-10): 3.74 µM | IC50 (NCI-H209): > 8 µM | IC50 (D-502MG): > 8 µM | IC50 (EC-GI-10): > 8 µM | IC50 (KG-1): > 8 µM | IC50 (SJSA-1): > 8 µM | IC50 (TE-11): 0.3 µM | IC50 (MS-1): > 8 µM | IC50 (GCIY): 5.48 µM | IC50 (HCC1187): 1.81 µM | IC50 (CTV-1): 2.85 µM | IC50 (SNB-75): 5.27 µM | IC50 (D283 Med): > 8 µM | IC50 (NOMO-1): > 8 µM | IC50 (NCI-H1355): 1.11 µM | IC50 (C8166): 4.47 µM | IC50 (EOL1): 2.49 µM | IC50 (L-428): > 8 µM | IC50 (MHH-PREB-1): > 8 µM | IC50 (HuTu80): > 8 µM | IC50 (A388): > 8 µM | IC50 (KALS-1): > 8 µM | IC50 (NCI-H1155): > 8 µM | IC50 (ES5): 6.6 µM | IC50 (OS-RC-2): > 8 µM | IC50 (SK-MEL-1): > 8 µM | IC50 (NCI-H1648): > 8 µM | IC50 (KARPAS-45): 6.3 µM | IC50 (Calu-6): > 8 µM | IC50 (LS-1034): > 8 µM | IC50 (KINGS-1): > 8 µM | IC50 (MN-60): > 8 µM | IC50 (NCI-H510A): > 8 µM | IC50 (DMS-79): > 8 µM | IC50 (GOTO): > 8 µM | IC50 (MSTO-211H): > 8 µM | IC50 (DU-4475): > 8 µM

NC(=O)c1ncn([C@@H]2O[C@H](COP(=O)(O)O)[C@@H](O)[C@H]2O)c1N
IC50 (SF-539): > 2000 µM | IC50 (ES3): 1100 µM | IC50 (NTERA-2-cl-D1): > 2000 µM | IC50 (EW-24): > 2000 µM | IC50 (SK-N-DZ): 1020 µM | IC50 (RPMI-8866): > 2000 µM | IC50 (SW 962): > 2000 µM | IC50 (ML-2): > 2000 µM | IC50 (SK-NEP-1): 611 µM | IC50 (KURAMOCHI): > 2000 µM | IC50 (HOP-62): > 2000 µM | IC50 (A3-KAW): 368 µM | IC50 (OMC-1): > 2000 µM | IC50 (ONS-76): > 2000 µM | IC50 (HCE-4): 1710 µM | IC50 (JVM-2): > 2000 µM | IC50 (KS-1): 1250 µM | IC50 (KP-N-YS): > 2000 µM | IC50 (JVM-3): > 2000 µM | IC50 (CTB-1): 646 µM | IC50 (LB1047-RCC): > 2000 µM | IC50 (SCC-15): 466 µM | IC50 (KNS-42): > 2000 µM | IC50 (CAS-1): > 2000 µM | IC50 (HCE-T): 715 µM | IC50 (DMS-114): 1580 µM | IC50 (KGN): 630 µM | IC50 (TK-10): > 2000 µM | IC50 (NCI-H209): > 2000 µM | IC50 (D-502MG): > 2000 µM | IC50 (EC-GI-10): > 2000 µM | IC50 (KG-1): 301 µM | IC50 (SJSA-1): 949 µM | IC50 (TE-11): 587 µM | IC50 (MS-1): 425 µM | IC50 (HCC1187): 1140 µM | IC50 (CTV-1): 266 µM | IC50 (SNB-75): 1400 µM | IC50 (D283 Med): > 2000 µM | IC50 (NOMO-1): 847 µM | IC50 (NCI-H1355): > 2000 µM | IC50 (C8166): 1170 µM | IC50 (L-428): > 2000 µM | IC50 (MHH-PREB-1): 416 µM | IC50 (HuTu80): > 2000 µM | IC50 (A388): > 2000 µM | IC50 (KALS-1): 1160 µM | IC50 (NCI-H1155): 800 µM | IC50 (ES5): > 2000 µM | IC50 (OS-RC-2): > 2000 µM | IC50 (SK-MEL-1): > 2000 µM | IC50 (NCI-H1648): > 2000 µM | IC50 (KARPAS-45): 1410 µM | IC50 (Calu-6): 732 µM | IC50 (LS-1034): > 2000 µM | IC50 (KINGS-1): > 2000 µM | IC50 (MN-60): > 2000 µM | IC50 (NCI-H510A): > 2000 µM | IC50 (DMS-79): > 2000 µM | IC50 (GOTO): > 2000 µM | IC50 (MSTO-211H): 1740 µM

Reference: ChEMBL document CHEMBL1201861, “Genomics of Drug Sensitity in Cancer screening data, Wellcome Trust Sanger Institute”
